This experiment relates to PC-3/Txr tumors. In words: PC-3/Txr tumor growth inhibition, oral dosing. The note with it: in vivo.

Molecules are shown by their SMILES.

Regarding `CC(=O)O[C@@]12CO[C@@H]1C[C@H](O)[C@@]1(C)C(=O)[C@H](O)C3=C(C)[C@@H](OC(=O)[C@H](O)[C@@H](NC(=O)OC(C)(C)C)c4ccccc4)C[C@@](O)([C@@H](OC(=O)c4ccccc4)[C@H]21)C3(C)C` [docetaxel], the “efficacy in PC-3/Txr tumors” value is given as “lack of efficacy”.

The record behind these values is patent publication US20190374512A1, “COMPOUNDS FOR TREATMENT OF PANCREATIC CANCER” (UNIVERSITY OF TENNESSEE RESEARCH FOUNDATION, priority 2018, published 2019).
